According to patent publication US8314255B2, “Use of phthalimide and/or sulphonamide derivatives in the treatment of diseases which require reducing the TNF- α levels and an exogenous source of nitric oxide, phthalimide derivatives, sulphonamide derivatives, and a method for obtaining a sulphonamide derivative” (priority 2007, dated 2012):

How the values were obtained:
[1] = system: Salmonella typhimurium TA102; assay: AMES test, mutagenic evaluation in Salmonella typhimurium TA102 strain with/without metabolic activation (S9); format: cell-based
Outline: (§1)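 Preincubation Ames assay, 20–30 min at 37 °C with compound in DMSO, in 0.2 M phosphate buffer pH 7.4 or, with activation, Aroclor 1254-induced Sprague Dawley rat liver S9 mix. Plated in histidine/biotin-trace top agar, revertants counted after 48 h at 37 °C, triplicate. Mutagenicity ratio versus negative control, ≥2 scored positive; dose-response by ANOVA/Bernstein regression.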

[2] = system: Salmonella typhimurium TA100; assay: AMES test, mutagenic evaluation in Salmonella typhimurium TA100 strain with/without metabolic activation (S9); format: cell-based
Outline: as §1

[3] = system: mouse ear edema induced by capsaicin; assay: Mouse ear edema assay induced by capsaicin; format: in vivo; details: 300 μmol/Kg i.p., capsaicin 250 μg/ear 1 hour after administration
Method: This assay is characterized by an acute inflammatory response of the ear, with development of edema, and it was performed in order to evaluate the anti-inflammatory activity of the synthesized compounds.
In this assay, indomethacin was used as a control at 100 μmol/Kg, and the phthalimide derivatives were firstly evaluated at 300 μmol/Kg via i.p. From table 4, it can be observed that compounds IC and IE show an ear edema inhibition percentage higher than 64%. […] The other compounds, however, show a similar activity when compared to indomethacin (FIG. 01), taking into consideration the standard error.
This assay was performed using Swiss mice from both genders weighing from 18 to 30 grams. The animals were fasted for 8 hours with free access to water. This assay consists in locally administering (right ear) 20 μl of a capsaicin solution (250 μg/ear) diluted in acetone, 1 hour after the i.p. administration (diluted in 0.5% gum arabic). The left ear (control) received the carrier in which capsaicin was diluted (acetone) and the right ear received capsaicin. This assay is characterized by an acute inflammatory response of the ear, with development of edema. The animals were sacrificed and their ears were weighted to obtain the inflammation index. A biopsy (8 mm in diameter) of the ear was carried out. Next, the weights of the inflamed ears were compared against the weights of the contralateral ear (control ear) which were not treated with the phlogistic agent. The edema inhibition percentage was calculated by subtracting the ear treated with the carrier by that treated with capsaicin from each group of animals treated with the test substances, and then it was divided by the difference between the groups of the irritating agents and the control groups.

In the case of `O=C1c2ccccc2C(=O)N1CCO[N+](=O)[O-]` [IB, 2-(1,3-dioxo-1,3-dihydro-2H-isoindol-2-yl)ethyl nitrate], the “mutagenicity ratio (MR)” value ([1]; TA 102, +S9, 0.01 μmol/plate) is reported as 1.13, the “number of revertants per plate” value ([1]; TA 102, +S9, 0.01 μmol/plate) is reported as 249 ± 11.7 revertants/plate and the “mutagenicity ratio (MR)” value ([1]; TA 102, +S9, 0.021 μmol/plate) is reported as 1.22. For the same molecule, the “number of revertants per plate” value ([1]; TA 102, +S9, 0.021 μmol/plate) was 269 ± 10.6 revertants/plate, the “mutagenicity ratio (MR)” value ([1]; TA 102, +S9, 0.042 μmol/plate) was 1.09 and the “number of revertants per plate” value ([1]; TA 102, +S9, 0.042 μmol/plate) was 239 ± 22.5 revertants/plate. For the same molecule, the “mutagenicity ratio (MR)” value ([1]; TA 102, +S9, 0.085 μmol/plate) was 1.12, the “number of revertants per plate” value ([1]; TA 102, +S9, 0.085 μmol/plate) was 247 ± 21.4 revertants/plate and the “mutagenicity ratio (MR)” value ([1]; TA 102, +S9, 0.17 μmol/plate) was 0.97. The “number of revertants per plate” value ([1]; TA 102, +S9, 0.17 μmol/plate) was 214 ± 32 revertants/plate, the “mutagenicity ratio (MR)” value ([1]; TA 102, −S9, 0.01 μmol/plate) was 1.22 and the “number of revertants per plate” value ([1]; TA 102, −S9, 0.01 μmol/plate) was 394 ± 30 revertants/plate. For the same molecule, the “mutagenicity ratio (MR)” value ([1]; TA 102, −S9, 0.021 μmol/plate) was 1.55, the “number of revertants per plate” value ([1]; TA 102, −S9, 0.021 μmol/plate) was 452 ± 23 revertants/plate and the “mutagenicity ratio (MR)” value ([1]; TA 102, −S9, 0.042 μmol/plate) was 1.25. The “number of revertants per plate” value ([1]; TA 102, −S9, 0.042 μmol/plate) was 502 ± 14 revertants/plate, the “mutagenicity ratio (MR)” value ([1]; TA 102, −S9, 0.085 μmol/plate) was 1.34 and the “number of revertants per plate” value ([1]; TA 102, −S9, 0.085 μmol/plate) was 405 ± 24 revertants/plate. The “mutagenicity ratio (MR)” value ([1]; TA 102, −S9, 0.17 μmol/plate) was 1.54, the “number of revertants per plate” value ([1]; TA 102, −S9, 0.17 μmol/plate) was 433 ± 35.4 revertants/plate and the “mutagenicity ratio (MR)” value ([2]; TA 100, +S9, 0.01 μmol/plate) was 3.4. The “number of revertants per plate” value ([2]; TA 100, +S9, 0.01 μmol/plate) was 354 ± 6.9 revertants/plate, the “mutagenicity ratio (MR)” value ([2]; TA 100, +S9, 0.021 μmol/plate) was 3.22 and the “number of revertants per plate” value ([2]; TA 100, +S9, 0.021 μmol/plate) was 335 ± 10.8 revertants/plate. The “mutagenicity ratio (MR)” value ([2]; TA 100, +S9, 0.042 μmol/plate) was 3.8, the “number of revertants per plate” value ([2]; TA 100, +S9, 0.042 μmol/plate) was 397 ± 25.9 revertants/plate and the “mutagenicity ratio (MR)” value ([2]; TA 100, +S9, 0.085 μmol/plate) was 3.8. For the same molecule, the “number of revertants per plate” value ([2]; TA 100, +S9, 0.085 μmol/plate) was 395 ± 40.2 revertants/plate, the “mutagenicity ratio (MR)” value ([2]; TA 100, +S9, 0.17 μmol/plate) was 2.5 and the “number of revertants per plate” value ([2]; TA 100, +S9, 0.17 μmol/plate) was 261 ± 11 revertants/plate. For the same molecule, the “mutagenicity ratio (MR)” value ([2]; TA 100, −S9, 0.01 μmol/plate) was 1.49, the “number of revertants per plate” value ([2]; TA 100, −S9, 0.01 μmol/plate) was 171 ± 48.9 revertants/plate and the “mutagenicity ratio (MR)” value ([2]; TA 100, −S9, 0.021 μmol/plate) was 1.74. For the same molecule, the “number of revertants per plate” value ([2]; TA 100, −S9, 0.021 μmol/plate) was 200 ± 23.3 revertants/plate, the “mutagenicity ratio (MR)” value ([2]; TA 100, −S9, 0.042 μmol/plate) was 1.94 and the “number of revertants per plate” value ([2]; TA 100, −S9, 0.042 μmol/plate) was 223 ± 45.04 revertants/plate. The “mutagenicity ratio (MR)” value ([2]; TA 100, −S9, 0.085 μmol/plate) was 1.8, the “number of revertants per plate” value ([2]; TA 100, −S9, 0.085 μmol/plate) was 206 ± 30.2 revertants/plate and the “mutagenicity ratio (MR)” value ([2]; TA 100, −S9, 0.17 μmol/plate) was 1.43. For the same molecule, the “number of revertants per plate” value ([2]; TA 100, −S9, 0.17 μmol/plate) was 165 ± 11.1 revertants/plate and the “Average inhibition % (ear edema)” value [3] was 46.55%.
